According to ChEMBL document CHEMBL1201862, “PubChem BioAssay data set” (2004):
“And” between values parts separate entries of the source, which are not always exact repeats. Identical values can stand only once.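 Exposure lasted 48 hours, with cells grown in 96-well plates and compounds tested at five concentrations. GI50 marks 50% less growth.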 The source made the active and inactive calls. Rule as the data show it: active = GI50 up to about 1.1 µM and inactive = higher.

Experiments:
Assay in all cases: NCI anticancer screen, dose series, 48 h
SNB-75 = system: SNB-75
COLO 205 = system: COLO 205
EKVX = system: EKVX
CAKI-1 = system: CAKI-1
BT-549 = system: BT-549
SNB-19 = system: SNB-19
NCI-H226 = system: NCI-H226
786-0 = system: 786-0
SF-295 = system: SF-295
ACHN = system: ACHN
RPMI-8226 = system: RPMI-8226
Malme-3M = system: Malme-3M
OVCAR-4 = system: OVCAR-4
MOLT-4 = system: MOLT-4
KM12 = system: KM12
UACC-257 = system: UACC-257
SF-268 = system: SF-268
RXF 393 = system: RXF 393
UACC-62 = system: UACC-62
M19-MEL = system: M19-MEL

SMILES	GI50 (SNB-75)	GI50 (COLO 205)	GI50 (EKVX)	GI50 (CAKI-1)	GI50 (BT-549)	GI50 (SNB-19)	GI50 (NCI-H226)	GI50 (786-0)	GI50 (SF-295)	GI50 (ACHN)	GI50 (RPMI-8226)	GI50 (Malme-3M)	GI50 (OVCAR-4)	GI50 (MOLT-4)	GI50 (KM12)	GI50 (UACC-257)	GI50 (SF-268)	GI50 (RXF 393)	GI50 (UACC-62)	GI50 (M19-MEL)
O=C1C(c2c(O)[nH]c3ccc([N+](=O)[O-])cc23)=Nc2ccccc21	13.8 µM (inactive)	> 100 µM (inactive)	> 100 µM (inactive)	> 100 µM (inactive)	52.5 µM (inactive)	49.8 µM (inactive)	> 100 µM (inactive)	59.8 µM (inactive)	43 µM (inactive)	40.5 µM (inactive)	> 100 µM (inactive)	> 100 µM (inactive)	> 100 µM (inactive)	65.9 µM (inactive)	> 100 µM (inactive)	> 100 µM (inactive)	> 100 µM (inactive)	13 µM (inactive)	> 100 µM (inactive)	–
C=CCn1c(=S)sc2c(O)ncnc21	61.2 µM (inactive)	> 100 µM (inactive)	> 100 µM (inactive)	> 100 µM (inactive)	–	> 100 µM (inactive)	–	> 100 µM (inactive)	> 100 µM (inactive)	> 100 µM (inactive)	–	> 100 µM (inactive)	> 100 µM (inactive)	> 100 µM (inactive)	> 100 µM (inactive)	> 100 µM (inactive)	> 100 µM (inactive)	–	> 100 µM (inactive)	> 100 µM (inactive)
Cc1ccc(N2C(=O)/C(=C3\Sc4c(nc(C)[nH]c4=O)N3c3ccccc3)SC2=S)cc1	16.1 µM (inactive)	> 100 µM (inactive)	91.8 µM (inactive)	> 100 µM (inactive)	–	37.3 µM (inactive)	30.5 µM (inactive)	10.4 µM (inactive)	18 µM (inactive)	28.8 µM (inactive)	> 100 µM (inactive)	46.8 µM (inactive)	29.2 µM (inactive)	–	–	> 100 µM (inactive)	75.2 µM (inactive)	–	> 100 µM (inactive)	63.5 µM (inactive)
C[N+]1([O-])CCC(O)(C2CC2)CC1 (stereo not given)	> 100 µM (inactive)	> 100 µM (inactive)	> 100 µM (inactive)	> 100 µM (inactive)	> 100 µM (inactive)	> 100 µM (inactive)	> 100 µM (inactive)	> 100 µM (inactive)	> 100 µM (inactive)	> 100 µM (inactive)	> 100 µM (inactive)	> 100 µM (inactive)	> 100 µM (inactive)	> 100 µM (inactive)	> 100 µM (inactive)	> 100 µM (inactive)	> 100 µM (inactive)	> 100 µM (inactive)	> 100 µM (inactive)	–
CCOC(=O)/C(=C/c1cccc(OC)c1)N(CC)CC	–	> 100 µM (inactive)	> 100 µM (inactive)	> 100 µM (inactive)	–	> 100 µM (inactive)	> 100 µM (inactive)	> 100 µM (inactive)	> 100 µM (inactive)	> 100 µM (inactive)	> 100 µM (inactive)	–	> 100 µM (inactive)	> 100 µM (inactive)	> 100 µM (inactive)	> 100 µM (inactive)	> 100 µM (inactive)	–	> 100 µM (inactive)	> 100 µM (inactive)
COc1cc(C)c2c(=O)c3ccccc3n(C)c2c1	26.4 µM (inactive)	26.9 µM (inactive)	35 µM (inactive)	31.3 µM (inactive)	20.8 µM (inactive)	34.8 µM (inactive)	26.7 µM (inactive)	10.6 µM (inactive)	15.5 µM (inactive)	24.3 µM (inactive)	> 10 µM (inactive)	27.1 µM (inactive)	19.7 µM (inactive)	29.2 µM (inactive)	23.9 µM (inactive)	30.3 µM (inactive)	30.5 µM (inactive)	14.2 µM (inactive)	20.3 µM (inactive)	–
Clc1cc2n[se]nc2cc1Cl	36.1 µM (inactive)	–	> 100 µM (inactive)	> 100 µM (inactive)	–	> 100 µM (inactive)	–	> 100 µM (inactive)	> 100 µM (inactive)	> 100 µM (inactive)	> 100 µM (inactive)	> 100 µM (inactive)	> 100 µM (inactive)	> 100 µM (inactive)	> 100 µM (inactive)	> 100 µM (inactive)	> 100 µM (inactive)	> 100 µM (inactive)	> 100 µM (inactive)	> 100 µM (inactive)
COC(=O)CNC(=O)C(Cc1ccccc1)NC(=O)c1ccc(-c2ccc(Cl)cc2Cl)o1 (stereo not given)	30.9 µM (inactive)	14.6 µM (inactive)	20.3 µM (inactive)	19.2 µM (inactive)	26.4 µM (inactive)	35.3 µM (inactive)	48.4 µM (inactive)	16.9 µM (inactive)	18.7 µM (inactive)	18.9 µM (inactive)	12.3 µM (inactive)	21.5 µM (inactive)	21.5 µM (inactive)	14.3 µM (inactive)	24.4 µM (inactive)	17.8 µM (inactive)	19.8 µM (inactive)	18.4 µM (inactive)	13.6 µM (inactive)	–
Cn1c(=O)n2n(c1=O)Cc1cccc3cccc(c13)C2	> 100 µM (inactive)	> 100 µM (inactive)	> 100 µM (inactive)	> 100 µM (inactive)	> 100 µM (inactive)	> 100 µM (inactive)	> 100 µM (inactive)	> 100 µM (inactive)	> 100 µM (inactive)	> 100 µM (inactive)	> 100 µM (inactive)	> 100 µM (inactive)	> 100 µM (inactive)	> 100 µM (inactive)	> 100 µM (inactive)	> 100 µM (inactive)	> 100 µM (inactive)	53.6 µM (inactive)	> 100 µM (inactive)	–
Cc1ccccc1N(C)S(=O)(=O)c1ccccc1[N+](=O)[O-]	47.6 µM (inactive)	13.1 µM (inactive)	32.2 µM (inactive)	59.3 µM (inactive)	33 µM (inactive)	67.8 µM (inactive)	33.1 µM (inactive)	87.3 µM (inactive)	42.5 µM (inactive)	81.8 µM (inactive)	30.1 µM (inactive)	> 100 µM (inactive)	67.6 µM (inactive)	27.9 µM (inactive)	55.7 µM (inactive)	57 µM (inactive)	40.7 µM (inactive)	21.3 µM (inactive)	38.8 µM (inactive)	–
NC1=NS(=O)(=O)Nc2nc(-c3ccc(Cl)cc3)c(-c3ccc(Cl)cc3)nc21	> 100 µM (inactive)	> 100 µM (inactive)	–	> 100 µM (inactive)	–	> 100 µM (inactive)	–	> 100 µM (inactive)	> 100 µM (inactive)	> 100 µM (inactive)	–	> 100 µM (inactive)	> 100 µM (inactive)	> 100 µM (inactive)	> 100 µM (inactive)	> 100 µM (inactive)	> 100 µM (inactive)	> 100 µM (inactive)	> 100 µM (inactive)	> 100 µM (inactive)
COc1ccc2c(c1)C(=O)C1(C2)[C@H](c2ccccc2)C2C(=O)c3cc(OC)ccc3C2[C@H]1c1ccccc1 (stereo not given in full)	92.3 µM (inactive)	> 100 µM (inactive)	> 100 µM (inactive)	1.75 µM (inactive)	> 100 µM (inactive)	> 100 µM (inactive)	> 100 µM (inactive)	> 100 µM (inactive)	> 100 µM (inactive)	> 100 µM (inactive)	43.7 µM (inactive)	> 100 µM (inactive)	> 100 µM (inactive)	> 100 µM (inactive)	> 100 µM (inactive)	> 100 µM (inactive)	> 100 µM (inactive)	> 100 µM (inactive)	> 100 µM (inactive)	–
Cc1ccc2[nH]c3c(c2c1)C1CCC(C(C)(C)C)CC1C1C(=O)N(c2ccc(Oc4ccccc4)cc2)C(=O)C31 (stereo not given)	2.32 µM (inactive)	13.5 µM (inactive)	27 µM (inactive)	12.7 µM (inactive)	20 µM (inactive)	16.2 µM (inactive)	29.4 µM (inactive)	4.72 µM (inactive)	26.6 µM (inactive)	22.6 µM (inactive)	15.8 µM (inactive)	12.3 µM (inactive)	14.2 µM (inactive)	2.77 µM (inactive)	> 100 µM (inactive)	> 100 µM (inactive)	6.75 µM (inactive)	7.55 µM (inactive)	47.1 µM (inactive)	–
CCC/C(Cl)=N/OC(=O)Nc1cccc(F)c1	3.4 µM (inactive)	2.19 µM (inactive)	2.46 µM (inactive)	3.33 µM (inactive)	2.32 µM (inactive)	17.9 µM (inactive)	14.6 µM (inactive)	1.69 µM (inactive)	17.5 µM (inactive)	1.55 µM (inactive)	1.96 µM (inactive)	1.73 µM (inactive)	9.79 µM (inactive)	1.89 µM (inactive)	15.7 µM (inactive)	14.8 µM (inactive)	21.7 µM (inactive)	3.23 µM (inactive)	14.4 µM (inactive)	–
O=S(O)CCCCSSCC(O)C(O)CSSCCCCS(=O)O (stereo not given)	12 µM (inactive) and 17.3 µM (inactive)	18.5 µM (inactive) and 14.6 µM (inactive)	26.9 µM (inactive) and 33.4 µM (inactive)	51.6 µM (inactive) and 56.9 µM (inactive)	–	50 µM (inactive) and 55.6 µM (inactive)	–	> 100 µM (inactive)	15.5 µM (inactive) and 12.4 µM (inactive)	26.1 µM (inactive) and 22.1 µM (inactive)	13.5 µM (inactive) and 11.8 µM (inactive)	7.08 µM (inactive) and 7.24 µM (inactive)	10.7 µM (inactive) and 5.66 µM (inactive)	918 nM (active) and 697 nM (active)	21.2 µM (inactive) and 15 µM (inactive)	8.39 µM (inactive) and 4.7 µM (inactive)	17.5 µM (inactive) and 12.2 µM (inactive)	22.3 µM (inactive) and 14.7 µM (inactive)	12.9 µM (inactive) and 8.73 µM (inactive)	5.48 µM (inactive) and 3.37 µM (inactive)
